Data: PubChem BioAssay (NCI)
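At the GI50, growth is halved. TGI is the concentration that stops growth completely.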

Assays:
Assay in all cases: inhibition of tumour cell growth, NCI panel, 384-well format
NCI-H226 lung = system: NCI-H226 lung
NCI-H23 lung = system: NCI-H23 lung
NCI-H322M lung = system: NCI-H322M lung
NCI-H460 NSCLC = system: NCI-H460 NSCLC
NCI-H522 lung = system: NCI-H522 lung
NCI/ADR-RES ovarian = system: NCI/ADR-RES ovarian
OVCAR-3 ovarian = system: OVCAR-3 ovarian
OVCAR-4 ovarian = system: OVCAR-4 ovarian
OVCAR-5 ovarian = system: OVCAR-5 ovarian
OVCAR-8 ovarian = system: OVCAR-8 ovarian
PC-3 prostate = system: PC-3 prostate
RPMI-8226 leukemia = system: RPMI-8226 leukemia
RXF 393 renal = system: RXF 393 renal
SF-268 CNS = system: SF-268 CNS
SF-295 CNS = system: SF-295 CNS
SF-539 CNS = system: SF-539 CNS
SK-MEL-28 melanoma = system: SK-MEL-28 melanoma
SK-MEL-5 melanoma = system: SK-MEL-5 melanoma
SK-OV-3 ovarian = system: SK-OV-3 ovarian
SN12C renal = system: SN12C renal
SNB-19 CNS = system: SNB-19 CNS
SNB-75 CNS = system: SNB-75 CNS
SW-620 colon = system: SW-620 colon
T-47D breast = system: T-47D breast
TK-10 renal = system: TK-10 renal
U251 glioblastoma = system: U251 glioblastoma
UACC-257 melanoma = system: UACC-257 melanoma
UACC-62 melanoma = system: UACC-62 melanoma
UO-31 renal = system: UO-31 renal

Structure (SMILES): CN(CCO)C1CCN(c2ccc(Nc3ncc4c5ccnc(F)c5n(C5CCCC5)c4n3)nc2)CC1
- GI50 (NCI-H226 lung): 5.22 µM
- TGI (NCI-H226 lung): > 100 µM
- GI50 (NCI-H23 lung): 1.2 µM
- TGI (NCI-H23 lung): 2.46 µM
- GI50 (NCI-H322M lung): 1.34 µM
- TGI (NCI-H322M lung): 2.64 µM
- GI50 (NCI-H460 NSCLC): 0.188 µM
- TGI (NCI-H460 NSCLC): 1.81 µM
- GI50 (NCI-H522 lung): 1.77 µM
- TGI (NCI-H522 lung): 3.17 µM
- GI50 (NCI/ADR-RES ovarian): 1.74 µM
- TGI (NCI/ADR-RES ovarian): 3.17 µM
- GI50 (OVCAR-3 ovarian): 1.87 µM
- TGI (OVCAR-3 ovarian): 3.29 µM
- GI50 (OVCAR-4 ovarian): 1.73 µM
- TGI (OVCAR-4 ovarian): 3.13 µM
- GI50 (OVCAR-5 ovarian): 0.885 µM
- TGI (OVCAR-5 ovarian): > 100 µM
- GI50 (OVCAR-8 ovarian): 1.62 µM
- TGI (OVCAR-8 ovarian): 3.01 µM
- GI50 (PC-3 prostate): 1.43 µM
- TGI (PC-3 prostate): 2.79 µM
- GI50 (RPMI-8226 leukemia): 0.0477 µM
- TGI (RPMI-8226 leukemia): 1.12 µM
- GI50 (RXF 393 renal): 1.28 µM
- TGI (RXF 393 renal): 2.55 µM
- GI50 (SF-268 CNS): 0.0794 µM
- TGI (SF-268 CNS): 0.941 µM
- GI50 (SF-295 CNS): 0.881 µM
- TGI (SF-295 CNS): 2.15 µM
- GI50 (SF-539 CNS): 1.38 µM
- TGI (SF-539 CNS): 2.68 µM
- GI50 (SK-MEL-28 melanoma): 4.06 µM
- TGI (SK-MEL-28 melanoma): 16.2 µM
- GI50 (SK-MEL-5 melanoma): 0.48 µM
- TGI (SK-MEL-5 melanoma): 2.03 µM
- GI50 (SK-OV-3 ovarian): 1.45 µM
- TGI (SK-OV-3 ovarian): 2.78 µM
- GI50 (SN12C renal): 3.02 µM
- TGI (SN12C renal): 14.9 µM
- GI50 (SNB-19 CNS): 1.37 µM
- TGI (SNB-19 CNS): 2.76 µM
- GI50 (SNB-75 CNS): 1.48 µM
- TGI (SNB-75 CNS): 2.81 µM
- GI50 (SW-620 colon): 0.574 µM
- TGI (SW-620 colon): 2.01 µM
- GI50 (T-47D breast): 1.88 µM
- TGI (T-47D breast): 67.5 µM
- GI50 (TK-10 renal): 1.37 µM
- TGI (TK-10 renal): 2.7 µM
- GI50 (U251 glioblastoma): 1.12 µM
- TGI (U251 glioblastoma): 2.35 µM
- GI50 (UACC-257 melanoma): 1.55 µM
- TGI (UACC-257 melanoma): 2.9 µM
- GI50 (UACC-62 melanoma): 1.35 µM
- TGI (UACC-62 melanoma): 2.64 µM
- GI50 (UO-31 renal): 1.2 µM
- TGI (UO-31 renal): 2.45 µM
